*: point of attachment. AMC = Cc1cc(=O)oc2cc(N*)ccc12; Boc = CC(C)(C)OC(=O)*; OBn = c1ccc(CO*)cc1
How the values were obtained:
[1] = target: T1, enzyme solution treated with trypsin beads (purified signal-FLAG-ARS-extracellular protein) (Homo sapiens, UniProt Q7Z410, INS90FVSSFQKTELEASCVGCSVLNYRDGNSSVLVHFQ); test: Substrate cleavage activity of purified protein solution treated with trypsin beads; type: biochemical; conditions: substrate 400 μM, ammonium hydrogen carbonate buffer, 37° C. for one hour
T1 construct: FLAG (N); made in house; host or cells: HEK293-EBNA
T1 sequence (Q7Z410 with tags, fused parts or gaps): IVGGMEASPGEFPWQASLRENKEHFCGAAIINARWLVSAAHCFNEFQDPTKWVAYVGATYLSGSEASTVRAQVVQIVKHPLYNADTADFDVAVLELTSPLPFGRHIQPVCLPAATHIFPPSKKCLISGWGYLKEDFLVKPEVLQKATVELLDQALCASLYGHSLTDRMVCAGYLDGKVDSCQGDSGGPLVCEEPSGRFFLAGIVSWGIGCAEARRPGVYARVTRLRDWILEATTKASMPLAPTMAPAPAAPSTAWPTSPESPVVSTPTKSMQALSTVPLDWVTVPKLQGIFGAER
T1 sequence (Q7Z410 with tags, fused parts or gaps INS90FVSSFQKTELEASCVGCSVLNYRDGNSSVLVHFQ): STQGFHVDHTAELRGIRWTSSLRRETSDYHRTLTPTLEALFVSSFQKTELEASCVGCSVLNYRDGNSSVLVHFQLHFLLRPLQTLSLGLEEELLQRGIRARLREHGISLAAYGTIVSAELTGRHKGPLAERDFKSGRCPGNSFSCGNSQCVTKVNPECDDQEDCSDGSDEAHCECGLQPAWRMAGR
Procedure: By the same method as in Example 9, an enzyme solution treated with trypsin beads was obtained, using the purified protein solution. Then, the substrate cleavage activity of the enzyme solution was measured by the same method as in Example 8. Specifically, synthetic peptide substrates were diluted in ammonium hydrogen carbonate buffer to become a final concentration of 400 μM in a 96-well plate. After the enzyme solution described above was mixed into the resulting diluted substrates, the mixture were incubated at 37° C. for one hour. Subsequently, the fluorescence of AMC released from the synthetic peptide by enzymatic cleavage were measured.

[2] = target: T2, purified protein solution (signal-FLAG-ARS-extracellular protein) (Homo sapiens, UniProt Q7Z410, INS90FVSSFQKTELEASCVGCSVLNYRDGNSSVLVHFQ); test: Enzyme activity of purified recombinant protein using synthetic peptides; type: biochemical; conditions: substrate 200 μM or 400 μM, ammonium hydrogen carbonate buffer, 37° C. for one hour; versus buffer control
T2 construct: made in house; host or cells: HEK293-EBNA
T2 sequence (Q7Z410 with tags, fused parts or gaps INS90FVSSFQKTELEASCVGCSVLNYRDGNSSVLVHFQ): T1 sequence (Q7Z410 with tags, fused parts or gaps INS90FVSSFQKTELEASCVGCSVLNYRDGNSSVLVHFQ)
T2 sequence (Q7Z410 with tags, fused parts or gaps): T1 sequence (Q7Z410 with tags, fused parts or gaps)
Procedure: Using a cell expressing the signal-FLAG-ARS-extracellular protein, a recombinant protein secreted into the liquid culture of the cell was extracted and purified. Specifically, the transfected HEK293EBNA cells were incubated by the same method as in Example 7 to about 80% confluence, from which the culture medium was then removed. Instead, a culture medium containing 4% serum was added, for further incubation under conditions of 37° C. and a carbon dioxide concentration of 5% for another 4 days. The culture supernatant was recovered 4 days later; filtered through a 0.22-μm filter (Zartor); and adsorbed on an ANTI-FLAG M2-AGAROSE AFFINITY GEL (Sigma) column equilibrated with TBS buffer by a routine method. Subsequently, about 50 ml of the TBS buffer was used for washing the column. Then, 6 ml of […] glycine hydrochloride solution of pH 2.2 was passed through the column to obtain each 1 ml fraction. To the separated fractions, 100 μl of 1 M Tris-HCl of pH 8 was immediately added to adjust the pH. The individual fractions thus obtained were confirmed by Western blotting using an antibody against the FLAG tag added to the N terminus (mouse anti-FLAG monoclonal antibody M2; Sigma). Specifically, the eluted fractions were electrophoresed on SDS/4% to 20% acrylamide gel (Daiichi Pure Chemicals Co., Ltd.) (under reducing conditions) and then transferred on PVDF membrane (Millipore) using a blotting apparatus. After adding Block Ace (DAINIPPON PHARMACEUTICAL CO., LTD.) for blocking to the transferred PVDF membrane, a biotinylated mouse anti-FLAG monoclonal antibody (M2; Sigma) and horseradish peroxidase-labeled streptoavidin (Amersham Pharmacia) were sequentially reacted. After reaction, it was confirmed that which eluted fractions contained the protein, using ECL Western blotting detection system (Amersham Pharmacia).
Using a synthetic peptides which have the C terminus labeled wit MCA (4-methyl-coumaryl-7-amide) by the same method as in Example 8, the cleavage activity of the enzyme purified in Example 10 was detected. Unless otherwise described, the method described in a paper (Yasuoka, S. et al., Am. J. Respir. Cell Mol Biol., Vol. 16, 300-308, 1997) was used. Specifically, using a synthetic peptides (Peptide Institute, Inc.) which have the C terminus labeled with MCA as substrates, the substrates were diluted with ammonium hydrogen carbonate buffer to become a final concentration of 200 μM or 400 μM in a 96-well plate. After the purified protein solution obtained in Example 10 or the ammonium hydrogen carbonate buffer as a control was added to the substrate solutions, the resulting mixtures were incubated at 37° C. for one hour. Subsequently, the fluorescence of AMC (7-amino-4-methyl-coumarin) released from the synthetic peptide by enzymatic cleavage was measured at a wavelength of 460 nm for measurement, using an excitation wavelength of 390 nm with a fluorescent plate reader (SAFIRE manufactured by TECAN). In FIG. 1, the open bar expresses buffer control, while the solid bar expresses the case of using purified protein solution. The first bar represents the case of using Boc-Glu(OBzl)-Ala-Arg-MCA as a substrate; the second bar represents the case of using Boc-Phe-Ser-Arg-MCA as a substrate; the third bar represents the case of using Boc-Leu-Ser-Thr-Arg-MCA as a substrate; the fourth bar represents the case of using Boc-Gln-Arg-Arg-MCA as a substrate; the fifth bar represents the case of using Suc-Ala-Ala-Pro-Phe-MCA as a substrate; the sixth bar represents the case of using Suc-Ala-Pro-Ala-MCA as a substrate; the seventh bar represents the case of using Boc-Glu-Lys-Lys-MCA as a substrate; the eighth bar represents the case of using Boc-Leu-Lys-Arg-MCA as a substrate; the ninth bar represents the case of using Boc-Leu-Gly-Arg-MCA as a substrate; and the tenth bar represents the case of using Boc-Asp(OBzl)-Pro-Arg-MCA as a substrate.

Substance	cleavage of synthetic peptide by enzyme solution treated with trypsin beads (fluorescence of released AMC) [1]	cleavage of synthetic peptide by purified protein solution (fluorescence of released AMC) [2]
Boc-Phe-Ser-Arg-{AMC}	cleaved	showed the cleavage activities
Boc-Glu(OBn)-Ala-Arg-{AMC}	cleaved	showed the cleavage activities
Boc-Gln-Arg-Arg-{AMC}	cleaved	showed the cleavage activities

Source: patent publication US20060134719A1, “Novel serine protease” (priority 2002, published 2006)
